Where “and” joins values, the source holds several entries; their conditions need not be identical. Equal values may be shown once. Toxic doses and inconclusive results are not listed.
Tested on: L1210 leukemia ip in BDF1 mice, survival T/C
Assay: NCI In Vivo Anticancer Drug Screen. Data for tumor model L1210 Leukemia (intraperitoneal) in B6D2F1 (BDF1) mice
Conditions: endpoint: mean survival time, higher = longer survival
In short: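 Survival endpoint. Drug-treated group vs vehicle group, expressed as T divided by C. Tumor passaged by transplantation.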

[1] = dose: 100.0 mg/kg/injection, schedule: Q04DX003 (ip), vehicle: Klucel (hydroxypropylcellulose) (HPC)
[2] = dose: 200.0 mg/kg/injection, schedule: Q04DX003 (ip), vehicle: Klucel (hydroxypropylcellulose) (HPC)
[3] = dose: 100.0 mg/kg/injection, schedule: Q01DX001 (ip), vehicle: saline
[4] = dose: 200.0 mg/kg/injection, schedule: Q01DX001 (ip), vehicle: saline
[5] = dose: 50.0 mg/kg/injection, schedule: Q01DX001 (ip), vehicle: carboxymethylcellulose (CMC)
[6] = dose: 100.0 mg/kg/injection, schedule: Q01DX001 (ip), vehicle: carboxymethylcellulose (CMC)
[7] = dose: 200.0 mg/kg/injection, schedule: Q01DX001 (ip), vehicle: carboxymethylcellulose (CMC)
[8] = dose: 400.0 mg/kg/injection, schedule: Q01DX001 (ip), vehicle: carboxymethylcellulose (CMC)
[9] = dose: 50.0 mg/kg/injection, schedule: Q01DX009 (ip), vehicle: saline with Tween-80
[10] = dose: 100.0 mg/kg/injection, schedule: Q01DX009 (ip), vehicle: saline with Tween-80
[11] = dose: 200.0 mg/kg/injection, schedule: Q01DX009 (ip), vehicle: saline with Tween-80
[12] = dose: 400.0 mg/kg/injection, schedule: Q04DX003 (ip), vehicle: Klucel (hydroxypropylcellulose) (HPC)
[13] = dose: 100.0 mg/kg/injection, schedule: Q04DX003 (ip), vehicle: saline with Tween-80
[14] = dose: 200.0 mg/kg/injection, schedule: Q04DX003 (ip), vehicle: saline with Tween-80
[15] = dose: 400.0 mg/kg/injection, schedule: Q01DX009 (ip), vehicle: saline with Tween-80
[16] = dose: 400.0 mg/kg/injection, schedule: Q04DX003 (ip), vehicle: saline with Tween-80
[17] = dose: 400.0 mg/kg/injection, schedule: Q01DX001 (ip), vehicle: saline

With `O=C(C#Cc1ccccc1)[O][Sn]([c]1ccccc1)([c]1ccccc1)[c]1ccccc1` the T/C (dose: 1.56 mg/kg/injection, schedule: Q01DX009 (ip), vehicle: saline) was 102 % of control, the T/C (dose: 3.12 mg/kg/injection, schedule: Q01DX009 (ip), vehicle: saline) was 94 % of control and the T/C (dose: 6.25 mg/kg/injection, schedule: Q01DX009 (ip), vehicle: saline) was 96 % of control and 108 % of control.
`Nc1ncnc2c1c(C1=NCCCN1)cn2C1OC(CO)C(O)C1O` (stereo unspecified) was tested, and the T/C (dose: 12.5 mg/kg/injection, schedule: Q01DX005 (ip), vehicle: saline) was 117 % of control and the T/C (dose: 50.0 mg/kg/injection, schedule: Q01DX005 (ip), vehicle: saline) was 151 % of control.
For `CN(C)CCCN=C=NC1CCCCC1`, the T/C [1] was 98 % of control and the T/C [2] was 95 % of control.
In the case of `O=C/C=C/c1cc(Cl)ccc1O`, the T/C [3] is reported as 108 % of control and the T/C [4] is reported as 103 % of control.
`CCCCCCCCCCCCCCCCCBr` was tested, and the T/C [5] was 110 % of control, the T/C [6] was 95 % of control and the T/C [7] was 93 % of control. For the same molecule, the T/C [8] was 95 % of control.
In the case of `COc1ccc(C)cc1NC(=O)NNC(=O)c1ccc(Cl)cc1`, the T/C [9] is reported as 98 % of control, the T/C [10] is reported as 98 % of control and the T/C [11] is reported as 98 % of control.
For `COc1ccc([N+](=O)[O-])cc1NC(=O)NCCCl`, the T/C (dose: 75.0 mg/kg/injection, schedule: Q01DX009 (ip), vehicle: Klucel (hydroxypropylcellulose) (HPC)) was 108 % of control, the T/C [1] was 93 % of control and the T/C (dose: 150.0 mg/kg/injection, schedule: Q01DX009 (ip), vehicle: Klucel (hydroxypropylcellulose) (HPC)) was 95 % of control. The T/C [2] was 96 % of control, the T/C (dose: 300.0 mg/kg/injection, schedule: Q01DX009 (ip), vehicle: Klucel (hydroxypropylcellulose) (HPC)) was 102 % of control and the T/C [12] was 98 % of control.
In the case of `O=C1CCCCCCCCCCC1Br` (stereo unspecified), the T/C [10] is reported as 110 % of control, the T/C [13] is reported as 92 % of control and the T/C [11] is reported as 95 % of control. For the same molecule, the T/C [14] was 87 % of control, the T/C [15] was 87 % of control and the T/C [16] was 92 % of control.
For `CC12CCC(O)CC1=CCC1C2CCC2(C)C1CC1=CC(C#N)C(=O)NC12O` (stereo unspecified), the T/C (dose: 100.0 mg/kg/injection, schedule: Q04DX003 (sc), vehicle: Klucel (hydroxypropylcellulose) (HPC)) was 100 % of control, the T/C (dose: 200.0 mg/kg/injection, schedule: Q04DX003 (sc), vehicle: Klucel (hydroxypropylcellulose) (HPC)) was 103 % of control and the T/C (dose: 400.0 mg/kg/injection, schedule: Q04DX003 (sc), vehicle: Klucel (hydroxypropylcellulose) (HPC)) was 99 % of control.
In the case of `O=C(O)Cc1c[nH]c(=O)[nH]c1=O`, the T/C [10] is reported as 97 % of control, the T/C [13] is reported as 102 % of control and the T/C [11] is reported as 103 % of control. The T/C [14] was 103 % of control, the T/C [15] was 101 % of control and the T/C [16] was 92 % of control.
In the case of `CCC(Br)Cc1ccccc1` (stereo unspecified), the T/C (dose: 2.0 mg/kg/injection, schedule: Q01DX015 (ip), vehicle: saline) is reported as 91 % of control, the T/C (dose: 4.0 mg/kg/injection, schedule: Q01DX015 (ip), vehicle: saline) is reported as 91 % of control and the T/C (dose: 8.0 mg/kg/injection, schedule: Q01DX015 (ip), vehicle: saline) is reported as 91 % of control. The T/C (dose: 16.0 mg/kg/injection, schedule: Q01DX015 (ip), vehicle: saline) was 95 % of control.
For `O=C(Nc1ccc(S(=O)(=O)NC2CCCCC2)cc1)OCc1ccccc1`, the T/C [3] was 95 % of control, the T/C [4] was 89 % of control and the T/C [17] was 95 % of control.
With `O=C(C(=O)c1ccc(O)cc1)c1ccccc1` the T/C [6] was 103 % of control, the T/C [7] was 97 % of control and the T/C [8] was 97 % of control.
`CCOC(=O)c1ccc(N(CC(N)O)S(=O)(=O)c2ccc(C)cc2)cc1` (stereo unspecified) was tested, and the T/C (dose: 12.5 mg/kg/injection, schedule: Q01DX009 (ip), vehicle: saline with Tween-80) was 96 % of control, the T/C (dose: 25.0 mg/kg/injection, schedule: Q01DX009 (ip), vehicle: saline with Tween-80) was 98 % of control and the T/C [9] was 98 % of control.
For `CCOC(=O)C1C(=O)C(C(=O)Nc2ccccc2)C(=O)C(C(=O)OCC)C1c1ccc(OC(C)=O)cc1` (stereo unspecified), the T/C (dose: 50.0 mg/kg/injection, schedule: Q01DX001 (ip), vehicle: saline with Tween-80) was 94 % of control, the T/C (dose: 100.0 mg/kg/injection, schedule: Q01DX001 (ip), vehicle: saline with Tween-80) was 100 % of control and the T/C (dose: 200.0 mg/kg/injection, schedule: Q01DX001 (ip), vehicle: saline with Tween-80) was 96 % of control.
For `CC(C)=CC(=O)CNC(N)=S`, the T/C [1] was 100 % of control and 98 % of control, the T/C [2] was 101 % of control and the T/C [12] was 93 % of control.
`CS(=O)(=O)n1c(CO)nc2ccccc21` was tested, and the T/C [6] was 101 % of control, the T/C [7] was 92 % of control and the T/C [8] was 97 % of control.
For `CCCCCC(=O)N1CCCCC1C` (stereo unspecified), the T/C [5] was 97 % of control, the T/C (dose: 50.0 mg/kg/injection, schedule: Q01DX009 (ip), vehicle: carboxymethylcellulose (CMC)) was 95 % of control and 97 % of control and the T/C (dose: 50.0 mg/kg/injection, schedule: Q04DX002 (ip), vehicle: carboxymethylcellulose (CMC)) was 96 % of control and 98 % of control. For the same molecule, the T/C (dose: 50.0 mg/kg/injection, schedule: Q04DX003 (ip), vehicle: carboxymethylcellulose (CMC)) was 98 % of control, the T/C [6] was 103 % of control and the T/C (dose: 100.0 mg/kg/injection, schedule: Q01DX009 (ip), vehicle: carboxymethylcellulose (CMC)) was 96 % of control and 98 % of control. The T/C (dose: 100.0 mg/kg/injection, schedule: Q04DX002 (ip), vehicle: carboxymethylcellulose (CMC)) was 97 % of control and 109 % of control and 92 % of control, the T/C (dose: 100.0 mg/kg/injection, schedule: Q04DX003 (ip), vehicle: carboxymethylcellulose (CMC)) was 93 % of control and the T/C [7] was 90 % of control. For the same molecule, the T/C (dose: 200.0 mg/kg/injection, schedule: Q04DX002 (ip), vehicle: carboxymethylcellulose (CMC)) was 100 % of control and 86 % of control and the T/C (dose: 200.0 mg/kg/injection, schedule: Q04DX003 (ip), vehicle: carboxymethylcellulose (CMC)) was 95 % of control.
With `Nc1ccccc1SC1CC(=O)N(c2ccccc2Cl)C1=O` (stereo unspecified) the T/C [10] was 98 % of control, the T/C [11] was 95 % of control and the T/C [15] was 97 % of control.
In the case of `ClCc1ccc(-c2ccc(CCl)cc2)cc1`, the T/C (dose: 30.0 mg/kg/injection, schedule: Q01DX015 (ip), vehicle: carboxymethylcellulose (CMC)) is reported as 116 % of control, the T/C (dose: 60.0 mg/kg/injection, schedule: Q01DX015 (ip), vehicle: carboxymethylcellulose (CMC)) is reported as 106 % of control and the T/C [6] is reported as 100 % of control. The T/C (dose: 120.0 mg/kg/injection, schedule: Q01DX015 (ip), vehicle: carboxymethylcellulose (CMC)) was 102 % of control, the T/C [7] was 104 % of control and the T/C (dose: 240.0 mg/kg/injection, schedule: Q01DX015 (ip), vehicle: carboxymethylcellulose (CMC)) was 98 % of control. For the same molecule, the T/C (dose: 300.0 mg/kg/injection, schedule: Q01DX015 (ip), vehicle: carboxymethylcellulose (CMC)) was 108 % of control and the T/C [8] was 105 % of control.
`c1ccc2nc3c(cc2c1)[nH]c1ccccc13` was tested, and the T/C (dose: 100.0 mg/kg/injection, schedule: Q04DX002 (ip), vehicle: gum acacia) was 92 % of control, the T/C (dose: 200.0 mg/kg/injection, schedule: Q04DX002 (ip), vehicle: gum acacia) was 106 % of control and the T/C (dose: 400.0 mg/kg/injection, schedule: Q04DX002 (ip), vehicle: gum acacia) was 103 % of control.
`COP1(=O)OC(C)C(C)O1` (stereo unspecified) was tested, and the T/C [3] was 98 % of control, the T/C [4] was 102 % of control and the T/C [17] was 93 % of control.
`Cc1ncc(CO)c(/C=N/OCc2ccc(OCc3ccccc3)cc2)c1O` was tested, and the T/C [13] was 102 % of control and the T/C [14] was 100 % of control.
`O=C(O)CCC1CCC(=O)NC1=O` (stereo unspecified) was tested, and the T/C (dose: 25.0 mg/kg/injection, schedule: Q04DX002 (ip), vehicle: Klucel (hydroxypropylcellulose) (HPC)) was 95 % of control, the T/C (dose: 50.0 mg/kg/injection, schedule: Q04DX002 (ip), vehicle: Klucel (hydroxypropylcellulose) (HPC)) was 101 % of control and the T/C (dose: 100.0 mg/kg/injection, schedule: Q04DX002 (ip), vehicle: Klucel (hydroxypropylcellulose) (HPC)) was 89 % of control. For the same molecule, the T/C (dose: 200.0 mg/kg/injection, schedule: Q04DX002 (ip), vehicle: Klucel (hydroxypropylcellulose) (HPC)) was 103 % of control and the T/C (dose: 400.0 mg/kg/injection, schedule: Q04DX002 (ip), vehicle: Klucel (hydroxypropylcellulose) (HPC)) was 88 % of control.
For `Cc1ccc(S(=O)(=O)Nc2ccc(-c3ccc(NS(=O)(=O)c4ccc(C)cc4)cc3)cc2)cc1`, the T/C (dose: 50.0 mg/kg/injection, schedule: Q04DX002 (ip), vehicle: saline with Tween-80) was 89 % of control and the T/C (dose: 100.0 mg/kg/injection, schedule: Q04DX002 (ip), vehicle: saline with Tween-80) was 95 % of control.

Source: PubChem BioAssay AID248 (DTP/NCI, 2004)
